IC50 data for seven compounds are collected here from US9340590B2 (priority 2011, dated 2016).

SMILES strings stand for the structures. Positions of bridges follow the written chain, without caps; N, C: chain ends. Residues, ends and D or L forms follow the SMILES beside them.

Holding throughout (test): cell-based
The target in experiment [1] is hNav1.7 (Homo sapiens, UniProt Q15858). Type of experiment: cell-based. Particulars: IonWorks Quattro, use-dependent block, hNav1.7; read-out: IWQ Use Nav1.7. Background: In patch-clamp work, channel activity is measured electrically.
In experiment [2] the target is hNav1.5 (Homo sapiens, UniProt Q14524). Particulars: IonWorks Quattro, use-dependent block, hNav1.5; read-out: IWQ Use Nav1.5.
The target of experiment [3] is hNav1.3 (Homo sapiens, UniProt Q9NY46). Particulars: IonWorks Quattro, use-dependent block, hNav1.3; read-out: IWQ Use Nav1.3.

Sequence of hNav1.5 (Q14524 whole entry, looked up): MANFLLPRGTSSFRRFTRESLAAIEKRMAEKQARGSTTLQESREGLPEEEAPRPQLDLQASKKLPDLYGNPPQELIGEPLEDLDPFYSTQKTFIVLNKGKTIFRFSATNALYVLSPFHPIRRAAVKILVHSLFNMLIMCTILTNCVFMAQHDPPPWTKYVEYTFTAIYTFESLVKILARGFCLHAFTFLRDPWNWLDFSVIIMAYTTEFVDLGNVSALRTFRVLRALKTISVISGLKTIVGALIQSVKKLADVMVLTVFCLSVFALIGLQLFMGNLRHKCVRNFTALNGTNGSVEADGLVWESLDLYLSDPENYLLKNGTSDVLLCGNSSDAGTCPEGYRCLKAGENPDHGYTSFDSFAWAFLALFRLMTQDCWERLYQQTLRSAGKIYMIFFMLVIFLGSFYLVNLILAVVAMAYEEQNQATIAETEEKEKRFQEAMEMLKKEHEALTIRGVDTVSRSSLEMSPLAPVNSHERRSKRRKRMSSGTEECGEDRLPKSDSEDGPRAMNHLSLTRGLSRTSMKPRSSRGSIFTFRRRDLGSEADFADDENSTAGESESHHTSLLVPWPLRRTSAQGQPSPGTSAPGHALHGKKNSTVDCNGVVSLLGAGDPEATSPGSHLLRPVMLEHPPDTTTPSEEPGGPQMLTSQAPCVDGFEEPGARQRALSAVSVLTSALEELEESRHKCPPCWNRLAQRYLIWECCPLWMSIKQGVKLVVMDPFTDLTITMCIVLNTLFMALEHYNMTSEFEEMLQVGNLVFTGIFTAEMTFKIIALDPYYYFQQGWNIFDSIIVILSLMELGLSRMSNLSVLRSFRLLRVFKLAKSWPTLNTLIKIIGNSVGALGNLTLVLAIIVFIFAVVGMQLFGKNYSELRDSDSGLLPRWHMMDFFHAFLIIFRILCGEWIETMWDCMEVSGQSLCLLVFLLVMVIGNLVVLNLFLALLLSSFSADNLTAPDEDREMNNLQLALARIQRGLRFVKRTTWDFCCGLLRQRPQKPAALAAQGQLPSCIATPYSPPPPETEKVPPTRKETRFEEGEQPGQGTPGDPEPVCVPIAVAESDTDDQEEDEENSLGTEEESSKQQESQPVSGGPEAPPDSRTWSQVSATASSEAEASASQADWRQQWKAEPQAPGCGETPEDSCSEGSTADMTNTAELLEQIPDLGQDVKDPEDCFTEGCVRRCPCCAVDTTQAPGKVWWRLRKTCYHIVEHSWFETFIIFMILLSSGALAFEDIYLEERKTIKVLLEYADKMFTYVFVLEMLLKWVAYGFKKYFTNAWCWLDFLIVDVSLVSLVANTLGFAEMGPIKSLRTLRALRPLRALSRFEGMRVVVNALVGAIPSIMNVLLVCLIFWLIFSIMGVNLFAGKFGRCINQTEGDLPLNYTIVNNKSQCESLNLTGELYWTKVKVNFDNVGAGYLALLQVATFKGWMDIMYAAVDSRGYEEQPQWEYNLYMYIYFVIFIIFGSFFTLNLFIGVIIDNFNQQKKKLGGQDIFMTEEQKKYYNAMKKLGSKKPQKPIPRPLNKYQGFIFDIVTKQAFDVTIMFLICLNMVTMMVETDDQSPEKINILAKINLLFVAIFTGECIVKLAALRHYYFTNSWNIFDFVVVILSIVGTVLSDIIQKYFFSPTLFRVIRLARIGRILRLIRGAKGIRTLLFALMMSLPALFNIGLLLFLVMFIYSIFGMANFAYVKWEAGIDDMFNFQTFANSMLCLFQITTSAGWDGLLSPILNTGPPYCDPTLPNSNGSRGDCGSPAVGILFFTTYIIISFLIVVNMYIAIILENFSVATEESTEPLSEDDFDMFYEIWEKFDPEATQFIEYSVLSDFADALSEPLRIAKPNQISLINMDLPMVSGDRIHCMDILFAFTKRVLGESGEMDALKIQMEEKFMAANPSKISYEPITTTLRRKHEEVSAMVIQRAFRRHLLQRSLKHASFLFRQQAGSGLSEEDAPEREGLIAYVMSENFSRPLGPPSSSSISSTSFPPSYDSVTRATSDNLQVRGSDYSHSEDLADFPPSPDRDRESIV
Sequence of hNav1.7 (Q15858 whole entry, looked up): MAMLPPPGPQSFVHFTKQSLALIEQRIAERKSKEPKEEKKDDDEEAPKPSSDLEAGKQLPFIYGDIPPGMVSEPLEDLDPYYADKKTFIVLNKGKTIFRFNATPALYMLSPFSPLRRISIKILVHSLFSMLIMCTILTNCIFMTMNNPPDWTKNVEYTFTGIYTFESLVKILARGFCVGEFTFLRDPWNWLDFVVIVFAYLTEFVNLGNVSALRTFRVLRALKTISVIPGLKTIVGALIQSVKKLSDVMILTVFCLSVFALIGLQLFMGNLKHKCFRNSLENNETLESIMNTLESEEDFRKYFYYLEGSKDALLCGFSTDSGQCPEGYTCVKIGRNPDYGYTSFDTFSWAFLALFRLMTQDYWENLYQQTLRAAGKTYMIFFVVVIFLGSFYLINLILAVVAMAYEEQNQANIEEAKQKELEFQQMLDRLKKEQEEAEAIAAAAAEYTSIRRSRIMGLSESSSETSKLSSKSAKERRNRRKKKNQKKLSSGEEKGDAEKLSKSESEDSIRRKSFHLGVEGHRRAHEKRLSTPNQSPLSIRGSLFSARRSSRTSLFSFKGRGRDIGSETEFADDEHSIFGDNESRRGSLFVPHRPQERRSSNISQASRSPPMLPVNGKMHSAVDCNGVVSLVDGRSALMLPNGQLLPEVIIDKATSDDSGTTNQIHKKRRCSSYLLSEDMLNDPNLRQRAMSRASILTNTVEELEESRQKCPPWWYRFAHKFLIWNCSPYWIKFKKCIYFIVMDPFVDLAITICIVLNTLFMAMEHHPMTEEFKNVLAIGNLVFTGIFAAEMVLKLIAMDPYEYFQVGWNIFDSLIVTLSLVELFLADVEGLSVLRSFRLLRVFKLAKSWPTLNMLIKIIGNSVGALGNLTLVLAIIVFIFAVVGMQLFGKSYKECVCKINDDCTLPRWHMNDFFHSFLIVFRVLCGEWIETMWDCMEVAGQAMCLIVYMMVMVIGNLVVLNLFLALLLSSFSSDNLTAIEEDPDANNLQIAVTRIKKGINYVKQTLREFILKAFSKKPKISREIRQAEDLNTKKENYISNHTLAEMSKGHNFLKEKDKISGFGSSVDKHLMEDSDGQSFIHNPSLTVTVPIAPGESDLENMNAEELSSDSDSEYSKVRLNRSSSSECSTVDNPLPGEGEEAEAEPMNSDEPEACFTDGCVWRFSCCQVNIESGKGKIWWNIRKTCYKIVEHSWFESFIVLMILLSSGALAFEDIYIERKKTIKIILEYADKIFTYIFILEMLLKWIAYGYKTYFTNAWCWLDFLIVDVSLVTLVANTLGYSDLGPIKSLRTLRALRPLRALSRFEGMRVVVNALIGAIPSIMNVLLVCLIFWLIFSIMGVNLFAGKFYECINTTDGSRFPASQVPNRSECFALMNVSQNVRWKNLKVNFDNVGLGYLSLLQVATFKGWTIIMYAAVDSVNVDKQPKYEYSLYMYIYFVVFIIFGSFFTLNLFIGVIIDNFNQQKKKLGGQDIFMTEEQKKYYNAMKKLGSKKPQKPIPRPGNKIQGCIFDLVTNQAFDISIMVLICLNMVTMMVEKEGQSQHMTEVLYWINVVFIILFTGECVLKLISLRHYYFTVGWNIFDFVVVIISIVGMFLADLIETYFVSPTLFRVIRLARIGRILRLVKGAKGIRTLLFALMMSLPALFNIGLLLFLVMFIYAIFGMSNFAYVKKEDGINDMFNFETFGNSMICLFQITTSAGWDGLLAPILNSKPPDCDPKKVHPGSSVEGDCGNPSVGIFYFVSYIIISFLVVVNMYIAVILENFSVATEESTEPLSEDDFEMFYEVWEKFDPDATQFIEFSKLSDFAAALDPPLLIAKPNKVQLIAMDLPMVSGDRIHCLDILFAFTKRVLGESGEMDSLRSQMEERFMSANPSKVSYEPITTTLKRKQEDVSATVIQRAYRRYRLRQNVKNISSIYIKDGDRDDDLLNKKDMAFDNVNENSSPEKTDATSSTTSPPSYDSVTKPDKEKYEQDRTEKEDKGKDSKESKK

Consider `CC[C@H](C)[C@@H]1NC(=O)[C@@H]2CSSC[C@@H]3NC(=O)[C@H](C(C)C)NC(=O)[C@H](CC(C)C)NC(=O)[C@H](CC(N)=O)NC(=O)[C@@H]4CCCN4C(=O)[C@H](CCCNC(=N)N)NC(=O)[C@H](CSSC[C@H](NC(=O)[C@@H](N)CC(=O)O)C(=O)N[C@@H](CC(C)C)C(=O)NCC(=O)N[C@@H](C)C(=O)N[C@@H](CC(C)C)C(=O)N[C@@H](CCCNC(=N)N)C(=O)N[C@@H](CCCCN)C(=O)N2)NC(=O)[C@H](CSSC[C@@H](C(=O)N[C@@H](CCCCN)C(=O)N[C@@H](Cc2ccc(O)cc2)C(=O)N[C@H](C(=O)N[C@@H](Cc2ccccc2)C(=O)N[C@@H](Cc2c[nH]c4ccccc24)C(=O)O)C(C)C)NC(=O)[C@H](Cc2c[nH]c4ccccc24)NC(=O)[C@H](CCCNC(=N)N)NC(=O)[C@H](Cc2c[nH]cn2)NC(=O)[C@H]([C@@H](C)O)NC(=O)[C@H](CCCNC(=N)N)NC(=O)[C@H](CO)NC3=O)NC(=O)[C@H](CCCCN)NC(=O)[C@H](CC(=O)O)NC(=O)[C@H](CC(N)=O)NC(=O)[C@H](CC(=O)O)NC(=O)[C@@H]2CCCN2C1=O` [compound 814] (H-DCLGALRKCIPDNDKCCRPNLVCSRTHRWCKYVFW-OH; disulfide 2-17, 9-23, 16-30), for which the IC50 in experiment [1] was 0.6 µM; in experiment [2], greater than 5 µM; in experiment [3] it was 0.6 µM.

Consider `CC[C@H](C)[C@@H]1NC(=O)[C@@H]2CSSC[C@@H]3NC(=O)[C@H](C(C)C)NC(=O)[C@H](CC(C)C)NC(=O)[C@H](CC(N)=O)NC(=O)[C@@H]4CCCN4C(=O)[C@H](CCCNC(=N)N)NC(=O)[C@H](CSSC[C@H](NC(=O)[C@H](CC(=O)O)NC(=O)[C@H](CO)NC(=O)CN)C(=O)N[C@@H](CC(C)C)C(=O)NCC(=O)N[C@@H](C)C(=O)N[C@@H](Cc4ccccc4)C(=O)N[C@@H](CCCNC(=N)N)C(=O)N[C@@H](CCCCN)C(=O)N2)NC(=O)[C@H](CSSC[C@@H](C(=O)N[C@@H](CCCCN)C(=O)N[C@@H](Cc2ccc(O)cc2)C(=O)N[C@H](C(=O)N[C@@H](Cc2ccccc2)C(=O)N[C@@H](Cc2c[nH]c4ccccc24)C(=O)O)C(C)C)NC(=O)[C@H](Cc2c[nH]c4ccccc24)NC(=O)[C@H](CCCNC(=N)N)NC(=O)[C@H](Cc2c[nH]cn2)NC(=O)[C@H]([C@@H](C)O)NC(=O)[C@H](CCCNC(=N)N)NC(=O)[C@H](CO)NC3=O)NC(=O)[C@H](CCCCN)NC(=O)[C@H](CC(=O)O)NC(=O)[C@H](CC(N)=O)NC(=O)[C@H](CC(=O)O)NC(=O)[C@@H]2CCCN2C1=O` [compound 815] (H-GSDCLGAFRKCIPDNDKCCRPNLVCSRTHRWCKYVFW-OH; disulfide 4-19, 11-25, 18-32), for which the IC50 in experiment [1], in experiment [2] and in experiment [3] was greater than 5 µM each time.

Take `CC[C@H](C)[C@@H]1NC(=O)[C@@H]2CSSC[C@@H]3NC(=O)[C@H](C(C)C)NC(=O)[C@H](CC(C)C)NC(=O)[C@H](CC(N)=O)NC(=O)[C@@H]4CCCN4C(=O)[C@H](CCCNC(=N)N)NC(=O)[C@H](CSSC[C@H](NC(=O)[C@@H](N)CC(=O)O)C(=O)N[C@@H](CC(C)C)C(=O)NCC(=O)N[C@@H](C)C(=O)N[C@@H](Cc4ccccc4)C(=O)N[C@@H](CCCNC(=N)N)C(=O)N[C@@H](CCCCN)C(=O)N2)NC(=O)[C@H](CSSC[C@@H](C(=O)N[C@@H](CCCCN)C(=O)N[C@@H](Cc2ccc(O)cc2)C(=O)N[C@H](C(=O)N[C@@H](Cc2ccccc2)C(=O)N[C@@H](Cc2ccccc2)C(=O)O)C(C)C)NC(=O)[C@H](Cc2c[nH]c4ccccc24)NC(=O)[C@H](CCCNC(=N)N)NC(=O)[C@H](Cc2c[nH]cn2)NC(=O)[C@H]([C@@H](C)O)NC(=O)[C@H](CCCNC(=N)N)NC(=O)[C@H](CO)NC3=O)NC(=O)[C@H](CCCCN)NC(=O)[C@H](CC(=O)O)NC(=O)[C@H](CC(N)=O)NC(=O)[C@H](CC(=O)O)NC(=O)[C@@H]2CCCN2C1=O` [compound 817] (H-DCLGAFRKCIPDNDKCCRPNLVCSRTHRWCKYVFF-OH; disulfide 2-17, 9-23, 16-30): the IC50 was 1.5 µM in experiment [1], greater than 5 µM in experiment [2] and 0.5 µM in experiment [3].

For `CC[C@H](C)[C@@H]1NC(=O)[C@@H]2CSSC[C@@H]3NC(=O)[C@H](C(C)C)NC(=O)[C@H](CC(C)C)NC(=O)[C@H](CC(N)=O)NC(=O)[C@@H]4CCCN4C(=O)[C@H](CCCNC(=N)N)NC(=O)[C@H](CSSC[C@H](NC(=O)[C@@H](N)CC(=O)O)C(=O)N[C@@H](CC(C)C)C(=O)NCC(=O)N[C@@H](C)C(=O)N[C@@H](CC(C)C)C(=O)N[C@@H](CCCNC(=N)N)C(=O)N[C@@H](CCCCN)C(=O)N2)NC(=O)[C@H](CSSC[C@@H](C(=O)N[C@@H](CCCCN)C(=O)N[C@@H](Cc2ccc(O)cc2)C(=O)N[C@H](C(=O)N[C@@H](Cc2ccccc2)C(=O)N[C@@H](Cc2ccccc2)C(=O)O)C(C)C)NC(=O)[C@H](Cc2c[nH]c4ccccc24)NC(=O)[C@H](CCCNC(=N)N)NC(=O)[C@H](Cc2c[nH]cn2)NC(=O)[C@H]([C@@H](C)O)NC(=O)[C@H](CCCNC(=N)N)NC(=O)[C@H](CO)NC3=O)NC(=O)[C@H](CCCCN)NC(=O)[C@H](CC(=O)O)NC(=O)[C@H](CC(N)=O)NC(=O)[C@H](CC(=O)O)NC(=O)[C@@H]2CCCN2C1=O` [compound 818] (H-DCLGALRKCIPDNDKCCRPNLVCSRTHRWCKYVFF-OH; disulfide 2-17, 9-23, 16-30), the IC50 in experiment [1] is 2.3 µM; in experiment [2], greater than 5 µM; in experiment [3] it was 0.8 µM.

`CC[C@H](C)[C@@H]1NC(=O)[C@@H]2CSSC[C@@H]3NC(=O)[C@H](C(C)C)NC(=O)[C@H](CC(C)C)NC(=O)[C@H](CC(N)=O)NC(=O)[C@@H]4CCCN4C(=O)[C@H](CCCNC(=N)N)NC(=O)[C@H](CSSC[C@H](NC(=O)[C@H](CC(=O)O)NC(=O)[C@H](CO)NC(=O)CN)C(=O)N[C@@H](CC(C)C)C(=O)NCC(=O)N[C@@H](C)C(=O)N[C@@H](Cc4ccccc4)C(=O)N[C@@H](CCCNC(=N)N)C(=O)N[C@@H](CCCCN)C(=O)N2)NC(=O)[C@H](CSSC[C@@H](C(=O)N[C@@H](CCCCN)C(=O)N[C@@H](Cc2ccc(O)cc2)C(=O)N[C@H](C(=O)N[C@@H](Cc2ccccc2)C(=O)N[C@@H](Cc2ccccc2)C(=O)O)C(C)C)NC(=O)[C@H](Cc2c[nH]c4ccccc24)NC(=O)[C@H](CCCNC(=N)N)NC(=O)[C@H](Cc2c[nH]cn2)NC(=O)[C@H]([C@@H](C)O)NC(=O)[C@H](CCCNC(=N)N)NC(=O)[C@H](CO)NC3=O)NC(=O)[C@H](CCCCN)NC(=O)[C@H](CC(=O)O)NC(=O)[C@H](CC(N)=O)NC(=O)[C@H](CC(=O)O)NC(=O)[C@@H]2CCCN2C1=O` [compound 819] (H-GSDCLGAFRKCIPDNDKCCRPNLVCSRTHRWCKYVFF-OH; disulfide 4-19, 11-25, 18-32): the results for the IC50 in experiment [1], in experiment [2] and in experiment [3] were 1.5 µM, greater than 5 µM and 0.5 µM, respectively.

As for `CC[C@H](C)[C@@H]1NC(=O)[C@@H]2CSSC[C@@H]3NC(=O)[C@H](C(C)C)NC(=O)[C@H](CC(C)C)NC(=O)[C@H](CC(N)=O)NC(=O)[C@@H]4CCCN4C(=O)[C@H](CCCNC(=N)N)NC(=O)[C@H](CSSC[C@H](NC(=O)[C@H](CC(=O)O)NC(=O)[C@H](CO)NC(=O)CN)C(=O)N[C@@H](CC(C)C)C(=O)NCC(=O)N[C@@H](C)C(=O)N[C@@H](Cc4ccccc4)C(=O)N[C@@H](CCCNC(=N)N)C(=O)N[C@@H](CCCCN)C(=O)N2)NC(=O)[C@H](CSSC[C@@H](C(=O)N[C@@H](CCCCN)C(=O)N[C@@H](Cc2ccc(O)cc2)C(=O)N[C@H](C(=O)N[C@@H](Cc2ccccc2)C(=O)O)C(C)C)NC(=O)[C@H](Cc2c[nH]c4ccccc24)NC(=O)[C@H](CCCNC(=N)N)NC(=O)[C@H](Cc2c[nH]cn2)NC(=O)[C@H]([C@@H](C)O)NC(=O)[C@H](CCCNC(=N)N)NC(=O)[C@H](CO)NC3=O)NC(=O)[C@H](CCCCN)NC(=O)[C@H](CC(=O)O)NC(=O)[C@H](CC(N)=O)NC(=O)[C@H](CC(=O)O)NC(=O)[C@@H]2CCCN2C1=O` [compound 821] (H-GSDCLGAFRKCIPDNDKCCRPNLVCSRTHRWCKYVF-OH; disulfide 4-19, 11-25, 18-32), the values for the IC50 in experiment [1], in experiment [2] and in experiment [3] were 3.2 µM, greater than 5 µM and 3.2 µM, respectively.

For the compound `CC[C@H](C)[C@@H]1NC(=O)[C@@H]2CSSC[C@@H]3NC(=O)[C@H](C(C)C)NC(=O)[C@H](CC(C)C)NC(=O)[C@H](CC(N)=O)NC(=O)[C@@H]4CCCN4C(=O)[C@H](CCCNC(=N)N)NC(=O)[C@H](CSSC[C@H](NC(=O)[C@@H](N)CC(=O)O)C(=O)N[C@@H](CC(C)C)C(=O)NCC(=O)N[C@@H](C)C(=O)N[C@@H](Cc4ccccc4)C(=O)N[C@@H](CCCNC(=N)N)C(=O)N[C@@H](CCCCN)C(=O)N2)NC(=O)[C@H](CSSC[C@@H](C(=O)N[C@@H](CCCCN)C(=O)N[C@@H](Cc2ccc(O)cc2)C(=O)N[C@H](C(=O)N[C@@H](Cc2ccccc2)C(=O)O)C(C)C)NC(=O)[C@H](Cc2c[nH]c4ccccc24)NC(=O)[C@H](CCCNC(=N)N)NC(=O)[C@H](Cc2c[nH]cn2)NC(=O)[C@H]([C@@H](C)O)NC(=O)[C@H](CCCNC(=N)N)NC(=O)[C@H](CO)NC3=O)NC(=O)[C@H](CCCCN)NC(=O)[C@H](CC(=O)O)NC(=O)[C@H](CC(N)=O)NC(=O)[C@H](CC(=O)O)NC(=O)[C@@H]2CCCN2C1=O` [compound 823] (H-DCLGAFRKCIPDNDKCCRPNLVCSRTHRWCKYVF-OH; disulfide 2-17, 9-23, 16-30), the results for the IC50 in experiment [1], in experiment [2] and in experiment [3] were 3.4 µM, greater than 5 µM and 3.4 µM, respectively.
